# Like-named read-outs stand apart in the source and are kept apart here.
# How the values were obtained:
# NCHIH2030 cells = assay: Viability in media containing glucose or galactose; format: cell-based; conditions: glucose replaced with galactose in the media
# Method: FIG. 32G-L show exemplary viability results of NCHIH2030 cells grown in the presence of 10 mM glucose or 10 mM galactose in the media after 72 hours (Pyrithione-Cu is Pyrithione-CuCl2 (1:1); TMT-Cu is TMT-CuCl2 (1:1); 8HQ-Cu is 8-HQ-CuCl2 (1:1); Disulfiram-Cu is Disulfiram-CuCl2 (1:1); NSC319726-Cu is NSC319726-Cu Cl2 1(1:1); AntiA is Antimycin A).
# (§1) To establish if this effect is mediated by the electron transfer chain (ETC), 143B rho0 cells (lacking mitochondrial DNA) and their parental controls (143B) were tested.
# MON cells = assay: Viability after treatment with drugs in the presence of metal salts; format: cell-based; conditions: for cell death promoted by Zinc: 10 μM ZnCl2
# Method: Metal binding compounds can induce a toxic phenotype either by sequestration (chelation) of metals from essential factors or by shuttling (e.g., an ionophore) of metals to cellular compartments where they are toxic.
# The viability of MON cells was measured following treatment with increasing doses of indicated drugs in the presence of 10 μM FeCl2, FeCl3, ZnCl2, NiCl, CuCl2, or CoCl2 (FIG. 13). The viability of NCIH2030 cells was measured following treatment with increasing doses of indicated drugs in the presence of 10 μM FeCl2, FeCl3, ZnCl2, NiCl, CuCl2, or CoCl2 (FIG. 14).
# 143B rho0 cells = assay: Viability of 143B and 143B Rho0 cells; format: cell-based; conditions: 72 hours
# Method: as §1
# A549 cell lines = assay: Whole genome CRISPR/Cas9 deletion screens with copper bound ionophores; format: cell-based; conditions: positive selection
# Method: These genes included FDX1, protein lipoylation enzymes (LIAS, LIPT1, and DLD) and subunits of the lipoylated protein complex pyruvate dehydrogenase (DLAT, PDHA1, and PDHB).
# FIG. 54A-E show exemplary plots of the log fold change versus the calculated p-value of FDX1 (A), DLAT (B), DLD (C) and LIAS (D) genes from the two whole genome CRISPR/Cas9 deletion screens in A549 cell lines for two concentrations of elesclomol-Cu (40 nM and 100 nM). (E) The correlation scores of FDX1 mRNA expression with the viability of 724 cancer cell lines as previously determined (4) for the different concentrations of elesclomol.
# tumors = assay: Lipoic acid staining as biomarker of sensitivity
# Description: Lipoic acid was stained in FDX1 KO cells by an immunohistochemistry assay.
# [1] = system: multiple cell line models; assay: Elesclomol-induced cell death depending on copper availability (supplementation, TTM chelation, serum); format: cell-based
# Description: The sensitivity of cells to elesclomol is dependent on copper availability. […] Copper is not supplemented in the media (RPMI) and therefore the availability of copper is restricted to the abundance of copper in serum, which can strongly vary. […] Thus, the efficacy of elesclomol is dependent on extracellular and intracellular copper availability.
# [2] = system: lipoyl-DLAT and lipoyl-DLST; assay: Western blot of lipoylated proteins; format: cell-based
# Method: CRISPR KO FDX1 cell lines or CRISPR KO LIAS cell lines were created and were assessed for levels of lipoylated proteins lipoyl-DLAT and lipoyl-DLST by Western Blot (FIG. 8).
# Lipoic acid is a strong binder of copper, making it plausible that elesclomol bound copper could directly affect the lipoylated proteins. Indeed, the addition of elesclomol at concentrations as low as 10 nM reduced the levels of lipoylated proteins without dramatically affecting the protein levels (FIG. 36 and FIG. 37).
# The levels of lipoylation decrease following treatment of A549 cells with 1 μM elesclomol (+CuCl2) (FIG. 26).
# Biomarker-positive cells = assay: Cell culture washout (short exposure mimicking PK); format: cell-based; conditions: for sensitivity of biomarker-positive cells: high FDX1 expression vs biomarker negative
# Method: […] Panels D and Panel E show the relative changes in metabolites as measured in ABC1(D) and A549 (E) 24 hours after a 2 hour pulse treatment with 100 nM elesclomol.
# Biomarker-positive cells are sensitive to elesclomol-Cu(II) treatment corresponding to measured concentrations and kinetics measured in mice pharmokinetic (PK) studies.
# Study simulates short exposure time that mimics the pharmokinetic (PK) properties of elesclomol-Cu(II).
# Data supports Cmax driven activity profile. Cells will be used to establish a SubQ xenograft model where different copper ionophores could be analyzed for their efficacy.
# A549 cells = assay: Viability after FDX1 or LIAS gene deletion; format: cell-based
# Description: It has been previously shown that ferredoxin 1 (FDX1) is an important mediator of elesclomol-induced toxicity. […] To better understand the potential downstream mediators of cuproptosis, a CRISPR/Cas9 deletion strategy was used. […] In all conditions, FDX1 gene was the highest scoring hit, emphasizing the importance of this gene in elesclomol mediated toxicity (FIG. 33). […] The lipoic acid pathway mediates the lysine lipoylation of specific enzymes (DLAT, DLST, DBT, GCSH) that is crucial for their function (FIG. 34). […] This hypothesis was particularly appealing as lipoylation is required for mitochondrial respiration and lipoic acid has shown to have a high affinity binding to copper.
# ABC1 cells = assay: Elesclomol sensitivity of single cell clones with AAVS1 or FDX1 deletion; format: cell-based; conditions: in the presence of 1 uM CuCl2
# [3] = cited from earlier work
# [4] = Tsvetkov et al., Nat Chem Bio, 2019; cited from earlier work
# three cell lines = assay: Pre-treatment with compounds that block known cell death pathways; format: cell-based
# Description: To further establish which cell death pathways might be mediating the elesclomol induced copper-dependent cell death, a chemical approach was undertaken using compounds that block critical niches of known cell death pathways. […] As controls, ferroptosis-inducing GPX4 inhibitor (ML162) and apoptosis-inducing proteasome inhibitor (bortezomib) were used. […] Ferroptosis or apoptosis-altering compounds (as shown in the ML162 and bortezomib controls) had no effect on elesclomol-copper-induced cell death. […] The slight changes observed are most likely due to the copper chelating properties of the molecule. […] Given the absolute dependency and regulation of this cell death pathway by copper, this process is referred to as ‘cuproptosis’ for simplicity.
# FDX1 = molecular target: T1, FDX1 (Homo sapiens, UniProt P10109); conditions: cited from earlier work; for binding to FDX1: previously shown
# T1 sequence (P10109 61-184): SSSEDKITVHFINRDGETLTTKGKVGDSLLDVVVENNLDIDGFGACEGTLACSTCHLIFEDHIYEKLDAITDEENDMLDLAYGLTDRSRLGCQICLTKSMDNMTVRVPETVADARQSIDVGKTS
# lipid peroxidation = assay: Lipid peroxidation; format: cell-based
# HCM18 cells = assay: Viability of HCM18 control and Bak/Bax deleted cells; format: cell-based; conditions: HCM18 Bak/Bax knock out vs control
# Description: FIG. 32A-F show exemplary viability results of HCM18 control cells or […] deletion cells after treatment with indicate concentrations of different compounds (Pyrithione-Cu is Pyrithione-CuCl2 (1:1); TMT-Cu is TMT-CuCl2 (1:1); 8HQ-Cu is 8-HQ-CuCl2 (1:1); Disulfiram-Cu is Disulfiram-CuCl2 (1:1); NSC319726-Cu is NSC319726-Cu Cl2 1(1:1); AntiA is Antimycin A).
# Both iron and copper can generate highly reactive hydroxyl radical (.OH) from O2.— and H2O2 in the cell via the Fenton reaction. In the case of iron, this can result in lipid radicals that induce ferroptosis, a non-apoptotic cell death. […] As such, to determine if elesclomol induced cell death is apoptotic, a genetic approach was undertaken using the HCM18 cells that have the crucial apoptosis effectors (Bak and Bax) knocked out (FIG. 29). […] However, the ability of elesclomol-copper to induce cell death was unaffected (FIG. 11). Other copper binding molecules were tested in these cell lines and in all cases the efficacy of these compounds was unaffected by the genetic perturbation of the apoptosis pathway (FIG. 32).
# OVISE cells = assay: Viability after LIAS or FDX1 gene deletion; format: cell-based
# [5] = Tsvetkov et al., Nat Chem Bio, 2019
smiles,measurement,setting,value
"Oc1cccc2cccnc12 [8HQ, Oxyquinoline]",effect of shift to mitochondrial metabolism on sensitivity,NCHIH2030 cells,rather mild
same,cell death promoted by Iron,"MON cells; 10 μM FeCl2, FeCl3, to a lower extent than copper",also able to promote the cell death
same,sensitivity of 143B rho0 cells compared with parental 143B,143B rho0 cells,equally sensitive
CCN(CC)C(=S)[S-].CCN(CC)C(=S)[S-].[Cu+2] [Cu-DDC],"effect of deletion of FDX1, protein lipoylation and PDH genes",A549 cell lines,promotes resistance
C/C(=N\NC(=S)N1CCC1)c1ccccn1 [NSC-319726],cell death promoted by Zinc,MON cells; to a lower extent than copper,also able to promote the cell death
same,sensitivity of 143B rho0 cells compared with parental 143B,143B rho0 cells,equally sensitive
"[O-][n+]1ccccc1[S-].[O-][n+]1ccccc1[S-].[Zn+2] [Pyrithione, Pyrithione Zinc]",effect of shift to mitochondrial metabolism on sensitivity,NCHIH2030 cells,rather mild
same,cell death promoted by Zinc,MON cells; to a lower extent than copper,also able to promote the cell death
same,sensitivity of 143B rho0 cells compared with parental 143B,143B rho0 cells,equally sensitive
"CN(C)C(=S)SC(=S)N(C)C [TMT, tetra methyl thiuram monosulfide]",effect of shift to mitochondrial metabolism on sensitivity,NCHIH2030 cells,rather mild
same,sensitivity of 143B rho0 cells compared with parental 143B,143B rho0 cells,equally sensitive
"CCN(CC)C(=S)SSC(=S)N(CC)CC [disulfiram, tetraethylthiuram disulfide]",sensitivity of tumors with increased levels of lipoic acid,tumors,sensitive
same,cell death promoted by Zinc,MON cells; to a lower extent than copper,also able to promote the cell death
same,sensitivity of 143B rho0 cells compared with parental 143B,143B rho0 cells,slightly more sensitive
"CN(NC(=O)CC(=O)NN(C)C(=S)c1ccccc1)C(=S)c1ccccc1 [elesclomol, Elesclomol]",sensitivity of tumors with increased levels of lipoic acid,tumors,sensitive
same,sensitivity in media lacking serum,[1]; completely reversed by addition of copper,increased resistance
same,elesclomol-induced cell death upon addition of copper,[1]; copper 1 μM in media or 1:1 ratio with compound,strongly augment
same,elesclomol induced cell death upon chelation of copper with tetrathiomolybdate (TTM),[1]; multiple cell line models,completely blocks
same,variability of efficacy with copper supplementation,[1]; subset of ovarian cancer cell lines,strongly reduces the variability
same,lipoyl-DLAT and lipoyl-DLST protein levels,[2]; 1 μM over 6 hours,decreased over time
same,levels of lipoylation,"[2]; A549 cells, 1 μM (+CuCl2)",decrease
same,concentration that reduced the levels of lipoylated proteins,[2]; without dramatically affecting the protein levels,≤ 10 nM
same,sensitivity of biomarker-positive cells,Biomarker-positive cells,more sensitive
same,effect of deletion of LIAS,A549 cells,sufficient to promote resistance
same,effect of decrease of FDX1 beyond certain threshold,ABC1 cells,increases the cell resistance
same,Phase II trial outcome,[3]; in combination with paclitaxel,may provide a cancer progression-free survival benefit
same,Phase III trial outcome,[3]; in vivo,failed
same,copper dependence of killing,[4],copper dependent
same,block of cell death by copper chelation,"three cell lines; three cell lines tested, TTM","only copper chelation by TTM, was able to block"
same,effect of shift to mitochondrial metabolism on sensitivity,NCHIH2030 cells,increasingly more sensitive
same,selectivity of metal binding,MON cells; among compounds of the cluster,most selective binding to copper
same,FDX1 activity in vitro,FDX1; [5],inhibits FDX1 activity
same,binding to FDX1,FDX1,direct target
same,binding to FDX1,FDX1; listed as Elesclomol,directly binds
same,sensitivity of 143B rho0 cells compared with parental 143B,143B rho0 cells,slightly more sensitive
CN([N-]C(=O)CC(=O)[N-]N(C)C(=[SH+])c1ccccc1)C(=[SH+])c1ccccc1.[Cu] [elesclomol-Cu(II)],change in lipid peroxidation,lipid peroxidation,did not induce a profound change
same,"block of cell death by pan-caspase inhibitors, Ferrostatin-1, Necrostatin-1, antioxidants",three cell lines; pre-treatment of cells,did not block
same,"effect of deletion of FDX1, protein lipoylation and PDH genes",A549 cell lines,promotes resistance
same,efficacy in Bak/Bax deleted cells,HCM18 cells,unaffected
CN1C(c2ccccc2)=[SH][Cu+2]23[SH]=C(c4ccccc4)N(C)[N]2C(=O)CC(=O)[N]13 [elesclomol-Cu(II)],effect of deletion of LIAS or FDX1 in OVISE cells,OVISE cells,resistance
same,biomarker selective cell killing after short exposure,Biomarker-positive cells; 2 hour exposure at 200 nM followed by washout,sufficient to effect biomarker selective cell killing
same,sensitivity of biomarker-positive cells,Biomarker-positive cells,sensitive
same,effect of deletion of FDX1 in A549 cells,A549 cells; A549,relative resistance
same,effect of deletion of FDX1,A549 cells; multiple cell models,conferred resistance
same,substrate of FDX1,FDX1; [5],neo-substrate of FDX1
CC(=O)O[C@H]1C(=O)[C@@]2(C)[C@H]([C@H](OC(=O)c3ccccc3)[C@]3(O)C[C@H](OC(=O)[C@H](O)[C@@H](NC(=O)c4ccccc4)c4ccccc4)C(C)=C1C3(C)C)[C@]1(OC(C)=O)CO[C@@H]1C[C@@H]2O [paclitaxel],efficacy in Bak/Bax deleted cells,HCM18 cells,strongly inhibited

# Reference: US20230115675A1, “METHODS OF TREATING CANCER” (The Broad Institute, Inc., priority 2020, published 2023)
